Where two headings read alike, the source gives them in different places.
Legend:
U87 cells = experiment: Resazurin cytotoxicity assay in U87 / glioma cells; format: cell-based, human; details: for IC50: all glioma cells, 24 hours and 72 hours
Procedure: In vitro toxicity studies were performed as described in Example 4. To assess the potential cytotoxicity of both loaded and unloaded NPs, the resazurin assay was conducted in HBMEC and U87 cells. The sensitivity of GB cells to free CXB and TMZ was assessed following a treatment with a drug solution in the range 7-1700 μM and 5-2500 μM, respectively.
The cytotoxicity effect of AuNRs^c(RGDfK) and HNPs/HNPs^Tf against U87 cells. Regarding cell viability, the U87 cells were cultured in DMEM/F-12 medium, supplemented with 10% (v/v) FBS, 1% (v/v) penicillin-streptomycin solution and sodium bicarbonate. U87 were maintained at 37° C. in a humidified atmosphere containing CO2 (5%). The resazurin assay was used to determine the cytotoxicity of CXB, AuNRs^c(RGDfK) and HNPs. Briefly, 2000 cells per well were seeded in a 96 well plate and incubated for 24 hours or 72 hours after the medium was replaced with increasing concentrations of CXB or AuNRs^c(RGDfK) or HNPs/HNPS^Tf. Subsequently, the medium was removed, and the cell viability determined. For this purpose, 100 μl of 10% (w/v) resazurin solution in DMEM/F 12 was added to the cells and incubated for approximately 2 hours, at 37° C. The enzymatic reduction of resazurin to resorufin was analyzed by UV/Vis spectrophotometry at 570 nm and 600 nm. Cell viability was assessed as described above.

[1] = Safety and tolerability in mice; parameters: species or system Swiss nude mice; details: mouse, in vivo
Procedure: The dose used for temozolomide was 30 mg/kg (i.p administration) and 50 mg/kg (oral administration), as the upper threshold tolerated by animals. The treatment started 21 days after U87 cell implantation.
To understand the drug effect: At 21 days post-tumor cell injection, mice were randomly divided into six groups and treated intraperitoneally for two cycles of five consecutive days. […] Similarly, to the safety evaluation test, all animals were closely observed during the immediate post injection period. Mice physical appearance (body weight and coat condition), body function (food intake), presence of loose stools, diarrhea or blood in diarrhea and behavior (handling, aggression, abnormal gait and posture and reluctance to move) were also monitored throughout the study. Pre-determined human endpoints for animal euthanasia were also established, specifically, a weight loss greater than 20% of initial body weight, a temperature drop (<35° C.), and a tumor size higher than 50 mm^3.

[2] = Serum biomarkers for toxicity evaluation in glioblastoma-bearing mice; format: in vivo, Swiss nude mice; details: free drug in solution
Procedure: After reaching the endpoint, animals were euthanized. Whole blood samples were collected from mice immediately to heparinized tubes. The supernatant (serum) of blood obtained after centrifugation (2880×g for 10 min at 4° C.) was used to determine the levels of physiological biomarkers such as aspartate aminotransferase (AST), alanine aminotransferase (ALT), alkaline phosphatase (ALP), gamma glutamyl transpeptidase (GGT), creatinine kinase (CK), and urea (U) to investigate the effects of drug, nanoparticles and photothermal treatment.

[3] = test system: orthotopic U87 human GB tumor; experiment: In vivo antitumor efficacy in orthotopic U87 glioblastoma model; parameters: species or system human tumor in Swiss nude mice
Procedure: Regarding orthotopic U87 human GB tumor model, before the surgical procedure, fourteen nude mice were weighted, given buprenorphine (0.1 mg/Kg) intraperitoneally and placed on a stereotactic frame. To maintain anesthesia and sedation, the mice were anesthetized for 30 min with 4% isoflurane gas, mixed with medical oxygen at a rate of 1 L/min. Vital signs such as respiratory frequency and body temperature were monitored continuously. After the identification of the injection site, at the Cartesian coordinates (x, y, z)=(2.1, 0.5, −3) in relation to bregma, approximately 36 000 U87 cells were injected in the striatum of the frontal cortex of the right hemisphere of the brain, using a Hamilton syringe. In every mouse, the presence, location and volume of the tumors were assessed by Magnetic Resonance Imaging (MRI) weekly. MRI was performed using a 9.4T Bruker BioSpec 94/20USR system (Bruker, Germany) after anesthetizing mice with isoflurane (1 L/min, induction: 4% isoflurane; maintenance: 2% isoflurane). Vital signs, in particular, respiratory frequency and body temperature, were monitored continuously. For structural analysis, T2-weighted images were acquired in sagittal, coronal and axial planes, using a rapid acquisition with relaxation enhancement sequence (T2 Turbo RARE). Tumor images were manually segmented in the 3D Slicer software for 3D reconstruction, in order to calculate tumor volume.
Similarly, to the safety evaluation test, all animals were closely observed during the immediate post injection period. Mice physical appearance (body weight and coat condition), body function (food intake), presence of loose stools, diarrhea or blood in diarrhea and behavior (handling, aggression, abnormal gait and posture and reluctance to move) were also monitored throughout the study. Pre-determined human endpoints for animal euthanasia were also established, specifically, a weight loss greater than 20% of initial body weight, a temperature drop (<35° C.), and a tumor size higher than 50 mm^3. […]
The tumor growth delayed (TGD), which concerns the evaluation of tumor treatment modalities, was calculated according to
where, Dtreatment and Dcontrol correspond to the average doubling times of the treated and control tumors, respectively.
The tumor growth inhibition (TGI), which measures the tumor size between treated and control groups at specific time points was calculated according to
[formula] • where ΔT (=T−T0) represents the change in tumor size (volume) for the treated animals, while ΔC(=C−C0) represents the change in tumor size (volume) for the control animals. By comparing these values, the degree of tumor growth inhibition can be determined.

glioblastoma = details: cited from earlier work
[4] = Pharmacokinetics and biodistribution in mice after i.p. administration; format: in vivo, Swiss nude mice; parameters: AUCinf: concentration or dose not given beside the values
Procedure: Adult male and female Swiss Nu/Nu and Swiss Nu/+ mice, aged between 10-14 weeks and weighting 22-30 g, were purchased from Charles River Laboratories (Lyon, France) and maintained in local animal facilities under controlled conditions (12 hours light/dark cycle, at 20±2° C. and 50±5% of relative humidity), with free access to standard diet and water. All animal experiments were conducted in agreement with the international regulations of the European Union.
A solution containing CXB in PEG 400: NaCl 0.9% (pH=7.4) (2:1, V/V) was used as control. Thereafter, mice were sacrificed by decapitation at predetermined post-dosing time points. Blood samples were collected to heparinised tubes and centrifuged at 2880 g for 10 min at 4° C. Plasma supernatant was collected and frozen at −80° C. until analysis. […] Brain and liver tissues were homogenized with an H2O-acetonitrile (1:1, V/V) solution (4 mL per g of tissue) using a Thomas® Teflon pestle tissue homogenizer and centrifuged at 4 150 g for 15 min at 4° C. In parallel, spleen tissues were homogenized with 1 ml of the same solution using a high-speed stirrer (Ultra-Turrax X1020, Ystral GmbH, Dottingen, Germany) and then, centrifuged at 12 045 g for 5 min at 4° C. All supernatants were collected and stored at −80° C. until analysis using a previously validated HPLC method. […]

[5] = i.p., no irradiation (TMZ 30 mg/kg, CXB 5 mg/kg, nanoparticles 20 mg/kg)
[6] = i.p., no irradiation (TMZ 30 mg/kg, CXB 5 mg/kg, nanoparticles 20 mg/kg), listed as temozolomide
[7] = oral, 50 mg/kg, listed as temozolomide
[8] = celecoxib, i.p. mice, plasma, 20 mg/kg
[9] = mouse, ip, 20 mg/kg, celecoxib, i.p. mice, brain
[10] = mouse, ip, 20 mg/kg, celecoxib, i.p. mice, kidney
[11] = mouse, ip, 20 mg/kg, celecoxib, i.p. mice, liver
[12] = mouse, ip, 20 mg/kg, celecoxib, i.p. mice, plasma
[13] = mouse, ip, 20 mg/kg, celecoxib, i.p. mice, spleen

Cn1nnc2c(C(N)=O)ncn2c1=O [TMZ, temozolomide]
IC50 (U87 cells; Homo sapiens, U-87 MG, free TMZ): 800 µM
MTD ([1]; ip, i.p. administration, read-out: upper threshold dose tolerated by animals): 30 mg/kg
MTD ([1]; oral administration, read-out: upper threshold dose tolerated by animals): 50 mg/kg
CK increase over saline group [2]: 1.32 fold
animals that survived and prevented tumor recurrence ([3]; i.p. 30 mg/kg, out of 6 animals, 91 days): 4
% Tumor Growth Delay [3, 5]: 75 ± 21%
% Tumor Growth Inhibition [3, 5]: 66 ± 33%
Median survival [3, 5]: 91 days
Survivals at 56 days [3, 5]: 6/6
Survivals at 91 days [3, 5]: 4/6
% Tumor Growth Delay [3, 6]: 75%
% Tumor Growth Inhibition [3, 6]: 66%
% Tumor Growth Delay ([3]; oral, 50 mg/kg): 54 ± 11%
% Tumor Growth Inhibition ([3]; oral, 50 mg/kg): 42 ± 14%
Median survival ([3]; oral, 50 mg/kg): 70 days
Survivals at 56 days ([3]; oral, 50 mg/kg): 1/6
Survivals at 91 days ([3]; oral, 50 mg/kg): 1/6
animals that survived without tumor recurrence ([3]; oral, 50 mg/kg): only one animal survived
mean survival time (MST) ([3]; oral, 50 mg/kg): 70 days
% Tumor Growth Delay [3, 7]: 54%
% Tumor Growth Inhibition [3, 7]: 42%
median OS (glioblastoma; combination with radiotherapy vs. 12.1 months radiotherapy alone, P<0.001): 14.6 months
median survival time in patients (glioblastoma; comparative studies of several chemotherapeutic agents, in words): highest median survival time in patients

Cc1ccc(-c2cc(C(F)(F)F)nn2-c2ccc(S(N)(=O)=O)cc2)cc1 [CXB, celecoxib]
AUC0-last ([4]; celecoxib, i.p. mice, brain): 36.7 µg·h/g
AUCextrap ([4]; celecoxib, i.p. mice, brain): 7.08%
AUCinf ([4]; celecoxib, i.p. mice, brain): 39.5 µg·h/g
AUC0-last ([4]; celecoxib, i.p. mice, kidney): 35.3 µg·h/g
AUCextrap ([4]; celecoxib, i.p. mice, kidney): 16.3%
AUCinf ([4]; celecoxib, i.p. mice, kidney): 42.2 µg·h/g
AUC0-last ([4]; celecoxib, i.p. mice, liver): 27.7 µg·h/g
AUCextrap ([4]; celecoxib, i.p. mice, liver): 30.4%
AUCinf ([4]; celecoxib, i.p. mice, liver): 39.8 µg·h/g
AUCextrap ([4]; celecoxib, i.p. mice, plasma): 13.0%
AUC0-last [4, 8]: 28100 ng·h/mL
Cmax [4, 8]: 9100 ng/mL
AUC0-last ([4]; celecoxib, i.p. mice, spleen): 73.2 µg·h/g
AUCextrap ([4]; celecoxib, i.p. mice, spleen): 42.0%
AUCinf ([4]; celecoxib, i.p. mice, spleen): 126.2 µg·h/g
Cmax ([4]; mouse, brain, ip, 20 mg/kg, celecoxib, i.p. mice, brain, read-out: Cmax): 20600 ng/g
AUC(0-t) ([4]; mouse, ip, 20 mg/kg, plasma): 28100 ng·h/mL
MRT [4, 9]: 2 h
Tmax [4, 9]: 1 h
half-life [4, 9]: 1.4 h
MRT [4, 10]: 3.05 h
Tmax [4, 10]: 2 h
half-life [4, 10]: 2 h
MRT [4, 11]: 4.6 h
Tmax [4, 11]: 0.5 h
half-life [4, 11]: 2.8 h
AUC(0-inf) [4, 12]: 32300 ng·h/mL
MRT [4, 12]: 2.9 h
Tmax [4, 12]: 1 h
half-life [4, 12]: 1.9 h
MRT [4, 13]: 6.47 h
Tmax [4, 13]: 1 h
half-life [4, 13]: 4.07 h
Cmax ([4]; mouse, kidney, ip, 20 mg/kg, celecoxib, i.p. mice, kidney, read-out: Cmax): 15600 ng/g
Cmax ([4]; mouse, liver, ip, 20 mg/kg, celecoxib, i.p. mice, liver, read-out: Cmax): 10600 ng/g
Cmax ([4]; mouse, plasma, ip, 20 mg/kg, celecoxib, i.p. mice, plasma, read-out: Cmax): 9090 ng/mL
Cmax ([4]; mouse, spleen, ip, 20 mg/kg, celecoxib, i.p. mice, spleen, read-out: Cmax): 22400 ng/g
effect on cellular proliferation (U87 cells; free CXB, after 24 hours and 72 hours): able to impair cellular proliferation
IC50 (U87 cells; free CXB): < 400 µM
MTD ([1]; ip, celecoxib in solution, i.p., read-out: dose above which toxicity was exhibited): > 5 mg/kg
CK increase over saline group [2]: 1.17 fold
mean survival time (MST) ([3]; i.p., no irradiation (CXB 5 mg/kg, nanoparticles 20 mg/kg)): 48 days
% Tumor Growth Delay [3, 5]: 15 ± 5%
% Tumor Growth Inhibition [3, 5]: 13 ± 6%
Median survival [3, 5]: 48 days
Survivals at 56 days [3, 5]: 1/6
Survivals at 91 days [3, 5]: 0/6
inhibition of growth of GB cells in vivo ([3]; i.p., in words): the effect was not significant

Reference: patent publication US20260315596A1, “HYBRID NANOPARTICLES AS MULTIFUNCTIONAL PLATFORM FOR BRAIN TUMOR THERAPY” (UNIVERSIDADE DE COIMBRA, priority 2022, published 2026)
